The values that follow come from publication doi:10.1101/2020.06.11.145995v1 (biorxiv, 2020).

One assay addresses CSF1R-autoinhibited (Homo sapiens, UniProt P07333). Description: biochemical. The conditions noted are these: read-out: CPT-1-70-1 (1uM) % control.
In a further assay the target is EGFR(L858R,T790M) (Homo sapiens, UniProt P00533, L858R/T790M). Description: biochemical. The conditions noted are these: read-out: CPT-1-70-1 (1uM) % control.

Structures are written as SMILES.

Sequence of EGFR(L858R,T790M) (P00533 whole entry T790M/L858R): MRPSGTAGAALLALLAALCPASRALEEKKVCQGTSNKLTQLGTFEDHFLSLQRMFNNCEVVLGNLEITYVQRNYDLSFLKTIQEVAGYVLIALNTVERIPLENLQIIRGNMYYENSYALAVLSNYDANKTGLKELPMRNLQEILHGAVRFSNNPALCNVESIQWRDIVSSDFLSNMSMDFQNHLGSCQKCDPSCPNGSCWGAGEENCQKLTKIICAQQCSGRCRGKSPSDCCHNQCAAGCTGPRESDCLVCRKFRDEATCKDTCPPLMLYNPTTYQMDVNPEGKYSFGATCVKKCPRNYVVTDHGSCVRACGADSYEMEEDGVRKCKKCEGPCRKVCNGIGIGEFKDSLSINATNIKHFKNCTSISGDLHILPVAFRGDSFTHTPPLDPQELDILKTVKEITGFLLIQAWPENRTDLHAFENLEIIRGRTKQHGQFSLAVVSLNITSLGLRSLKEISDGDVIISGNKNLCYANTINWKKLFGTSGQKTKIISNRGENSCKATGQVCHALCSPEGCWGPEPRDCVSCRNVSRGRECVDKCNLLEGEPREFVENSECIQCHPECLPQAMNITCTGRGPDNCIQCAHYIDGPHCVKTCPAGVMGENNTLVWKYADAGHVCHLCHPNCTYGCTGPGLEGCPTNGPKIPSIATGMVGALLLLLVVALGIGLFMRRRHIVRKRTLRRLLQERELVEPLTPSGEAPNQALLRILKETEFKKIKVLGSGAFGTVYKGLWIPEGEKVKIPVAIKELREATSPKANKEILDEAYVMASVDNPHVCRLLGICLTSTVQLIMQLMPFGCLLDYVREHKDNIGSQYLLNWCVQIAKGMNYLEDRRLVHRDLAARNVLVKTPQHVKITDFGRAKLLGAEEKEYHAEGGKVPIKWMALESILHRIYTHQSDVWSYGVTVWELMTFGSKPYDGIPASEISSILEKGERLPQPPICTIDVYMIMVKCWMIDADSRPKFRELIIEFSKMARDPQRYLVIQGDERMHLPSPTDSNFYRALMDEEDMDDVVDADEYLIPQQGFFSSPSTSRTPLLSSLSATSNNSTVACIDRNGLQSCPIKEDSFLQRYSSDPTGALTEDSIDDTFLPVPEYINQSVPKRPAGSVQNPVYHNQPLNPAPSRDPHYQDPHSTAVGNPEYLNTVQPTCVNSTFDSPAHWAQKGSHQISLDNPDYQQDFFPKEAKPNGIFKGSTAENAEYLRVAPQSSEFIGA
Sequence of CSF1R-autoinhibited (P07333 whole entry): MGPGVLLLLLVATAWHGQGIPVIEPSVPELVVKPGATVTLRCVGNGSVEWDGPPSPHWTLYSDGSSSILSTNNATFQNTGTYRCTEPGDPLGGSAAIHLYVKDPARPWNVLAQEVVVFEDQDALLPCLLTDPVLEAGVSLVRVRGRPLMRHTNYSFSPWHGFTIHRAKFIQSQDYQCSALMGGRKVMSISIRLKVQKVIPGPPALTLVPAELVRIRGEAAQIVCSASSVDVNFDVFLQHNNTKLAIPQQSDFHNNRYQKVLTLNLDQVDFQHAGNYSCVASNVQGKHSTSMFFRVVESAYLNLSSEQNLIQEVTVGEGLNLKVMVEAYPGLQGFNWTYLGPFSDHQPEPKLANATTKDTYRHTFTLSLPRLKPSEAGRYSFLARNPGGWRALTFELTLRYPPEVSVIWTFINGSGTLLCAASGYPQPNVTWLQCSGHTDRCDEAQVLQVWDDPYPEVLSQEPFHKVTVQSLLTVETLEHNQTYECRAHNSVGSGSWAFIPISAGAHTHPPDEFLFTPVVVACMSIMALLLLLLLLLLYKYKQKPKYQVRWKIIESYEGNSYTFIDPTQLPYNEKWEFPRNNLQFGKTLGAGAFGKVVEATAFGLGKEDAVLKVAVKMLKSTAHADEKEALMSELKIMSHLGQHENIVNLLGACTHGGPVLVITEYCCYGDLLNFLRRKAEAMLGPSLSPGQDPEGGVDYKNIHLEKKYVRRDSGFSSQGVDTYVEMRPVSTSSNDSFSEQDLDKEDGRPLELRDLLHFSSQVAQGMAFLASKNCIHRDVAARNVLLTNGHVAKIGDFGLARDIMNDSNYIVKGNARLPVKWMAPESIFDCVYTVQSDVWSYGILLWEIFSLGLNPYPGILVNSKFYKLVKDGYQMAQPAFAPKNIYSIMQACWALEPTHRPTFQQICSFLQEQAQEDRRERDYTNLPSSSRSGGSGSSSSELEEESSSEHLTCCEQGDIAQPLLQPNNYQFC

Turning to `CN1CCN(c2ccc(Nc3nc(Oc4ccc(NC(=O)CCl)cc4)c4cc[nH]c4n3)cc2)CC1` [CPT1-70-1], the values for the remaining activity at 1 µM on CSF1R-autoinhibited and on EGFR(L858R,T790M) were 1.4% and 0.35%, respectively.
